Series [1] is described as follows: Conversion of CLA acetal to aldehyde using acid (HPLC). The series is classed as physicochemical. The note with it: 5 mg/mL in water. The method, then: Solutions of CLA diethyl acetal in water were prepared at a concentration of 5 mg/mL and the pH was adjusted to values shown in Table 8 using concentrated hydrochloric acid. Each solution was incubated at different times at room temperature. Samples were removed at each time point and quenched using basic phosphate buffer, yielding a final pH of 9. The quenched samples were analyzed using an Agilent 1100 HPLC system. The aldehyde was chromatographically separated from the acetal on a C18 reverse-phase HPLC column, using a linear gradient where the starting mobile phase was 0.1% trifluoroacetic acid in a 99:1 water:acetonitrile mixture and the final mobile phase was 0.1% trifluoroacetic acid in a 50:50 water:acetonitrile mixture. The absorbance at 220 nm was monitored, and the area of the peak corresponding to elution of the CLA diethyl acetal was computed.

Series [2] in a line: Single-dose oral rat toxicology study of CLA acetal. Type of series: in vivo, Sprague Dawley rats. The note with it: rats, oral gavage, 250, 1000, 2000 mg/kg, up to 24 hours after dosing. The protocol: Sprague Dawley rats were administered single doses of CLA acetal by oral gavage at 7-8 weeks of age. Each group received a single oral dose level of CLA acetal, ranging in amount from 0 to 2000 mg/kg. The vehicle consisted of Dulbecco's phosphate-buffered saline.

A short description of series [3]: Uptake and conversion of CLA acetal in rat gastrocnemius muscle. The series is classed as in vivo. The method, then:
This experiment was designed to measure the uptake of CLA acetal in rat gastrocnemius muscle and to detect conversion of CLA acetal to CLA as it occurs in rat muscle. […] At different times following administration of drug, each rat was sacrificed, the left and right gastrocnemius muscles were dissected from the rat, and the muscles were frozen by immersion in liquid nitrogen and storage in a −80° C. freezer.
The muscle tissues were thawed and homogenized using a blender.

Series [4] is described as follows: Qualitative oral bioavailability of CLA acetal in the rat (plasma). The note with it: for Estimated Plasma Concentration of CLA acetal / Estimated Plasma Concentration of CLA aldehyde: rat plasma.
Procedure: This experiment was designed to measure in a qualitative manner the oral bioavailability of CLA acetal in rats. Four Lewis strain normal male rats, 9 weeks of age were administered a single dose of 50 mg/kg of the acetate salt of the CLA acetal compound, using a single oral gavage. […] The blood samples were immediately centrifuged at 3000 rpm for 3-5 minutes to separate plasma from cells and the plasma and cells were frozen separately by immersion in liquid nitrogen and storage in a −20° C. freezer.
The aldehyde and acetal forms of CLA were then extracted from the plasma using a Bligh Dyer-type liquid phase extraction followed by solid-phase extraction using a reverse phase column. The relative amounts of CLA acetal and aldehyde were then measured using HPLC separation with mass spectrometric detection, using an electrospray ionization source and a Micromass Qtof detector.
Series [5] deals with calpain. The note with it: rats, IP, muscle isolated after 2 hours. The method, then:
An initial series of toxicology experiments was performed in rats to assess the effect of CLA at various doses, on animal viability. […] A series of experiments to examine the ability of CLA vs. leupeptin to decrease activated calpain levels and inhibit muscle wasting was conducted. In the experiment shown in Table 4, rats were utilized to assess the effect of IP injection of either leupeptin or CLA into the hind limb muscle on their ability to inhibit calpain activity. To this end, four rats were injected IP with either leupeptin or CLA. After 2 hours, the muscle was isolated, homogenized, and assayed for remaining calpain activity by the standard assay.

For another series, the system named is mdx mice. The note with it: for Myofiber diameter (Gastrocnemis) / Myofiber diameter, Diaphragm: injected parenterally daily from one to two months. The protocol: CLA was injected parenterally daily at the indicated concentrations into mdx mice from one to two months. Mdx control mice were injected with saline alone. At two months, the animals were sacrificed and indicated muscles removed, fixed, and stained for myofiber diameter analysis.

For series [6] the following is noted: rats, various doses.
Series [7] concerns rat hind limb muscle (sciatic nerve denervation). The note with it: for % loss (muscle atrophy due to denervation): rat.
Procedure: Denervation was carried out on one of the hind limb sciatic nerves of the rat. Denervation was allowed to proceed for 7 days. Either leupeptin or CLA was injected 2×/day in forelimb muscle for seven days. The non-denervated hind limb was used as the control. Leupeptin and/or CLA were injected into alternating forelimb muscles for a period of seven days after which, animals were sacrificed, muscles excised and weighed.
For series [8] the following is noted: rats.
Procedure: In a pilot toxicology study, two groups of 2 male and 2 female Sprague-dawley rats each were administered intravenous bolus doses of 250 and 500 mg/kg CLA. […] In a larger, follow-up study (Table 11), Sprague-Dawley rats were administered several lower doses of CLA intravenously at 7-8 weeks of age. The rats were divided into 4 groups consisting of equal numbers of male and female rats. […] The vehicle consisted of Dulbecco's phosphate-buffered saline.
The test system of series [9] is calpain. The note with it: RD muscle cells.
Source text: This study was designed to measure the effect of CLA, a calpain inhibitor, upon calpain activity inside living muscle cells. […] Full length alpha-II spectrin has a molecular weight of approximately 250 kilodaltons; upon cleavage by calpain, calpain-specific spectrin breakdown products with molecular weights of approximately 150 and 145 kilodaltons, respectively, are generated sequentially. Human RD muscle cells are a rhabdomyosarcoma muscle cell line that expresses OCTN2, a transporter for carnitine. By monitoring the reduction in spectrin breakdown products caused by calpain inhibition in RD muscle cells, it is possible to measure the potency of inhibitors according to the extent to which they reduce the appearance of calpain-specific spectrin breakdown products.
In the experiment, Rd muscle cells were incubated with either CLA or leupeptin for 1 hour. 1 nM maitotoxin was added to the cells to stimulate calcium influx and calpain activation. The cells were incubated for another 60 minutes. The cells were then lysed in phosphate buffer containing 1% Triton X-100 and a protease inhibitor cocktail. The lysed samples were centrifuged and the supernatants were collected. The protein concentration in each supernatant was measured using a standard assay. 20 micrograms of each sample was electrophoresed on a 4% Tris-glycine polyacrylamide gel. […]
Another series has as its target porcine kidney calpain 2 (Sus scrofa, UniProt I3LQD3). The experiment in a line: Enzymatic calpain assay with fluorogenic substrate. The series is classed as biochemical. The conditions noted are these: porcine kidney calpain 2, 37° C., 10 mM calcium chloride. An excerpt:
The α-carbon stereocenter adjacent to the aldehyde group of CLA can be prepared in a “natural” L or “unnatural” D configuration. It is known however that enolization of such aldehydes can easily occur during synthesis, storage, or administration of such peptide aldehydes to patients, with the result that the α-carbon stereocenter undergoes racemization. To investigate the relative biological activity of the optical isomers of CLA, the pure form of both the L-argininal diethyl […] diethyl acetal forms of CLA were prepared via the method described in Example 11 below using both L and D enantiomers of the […] starting materials. […] Slopes were calculated for the initial phase of each reaction and the ratios of velocities for each compound concentration (Vi) to the uninihibited reaction velocity (V0) were calculated, plotted, and fitted to a rectangular hyperbola using the program Kaleidagraph (Synergy software). […] An increase in enzyme activity appears to occur at intermediate concentrations of the D-isomer (Panel B.). This increase may be due to weak binding at an allosteric site that is not inhibitory the enzyme.

Setting [10] is: rat left gastrocnemius, 2 hours after oral 50 mg/kg CLA acetal acetate salt.
[11] abbreviates: rat right gastrocnemius, 6 hours after oral 50 mg/kg CLA acetal acetate salt.
The mark [12] stands for this setting: rat right gastrocnemius, 8 hours after oral 50 mg/kg CLA acetal acetate salt, one line per rat, 50 mg/kg.
Where [13] appears, read: 45 minutes after single oral gavage of 50 mg/kg CLA acetal acetate salt, single rat.

Several values for one entry are separate records, joined by “and”; a condition that tells them apart may be missing. Equal entries are not always repeated. Where two headings read alike, the source gives them in different places.

porcine kidney calpain 2, sequence (P04574 whole entry): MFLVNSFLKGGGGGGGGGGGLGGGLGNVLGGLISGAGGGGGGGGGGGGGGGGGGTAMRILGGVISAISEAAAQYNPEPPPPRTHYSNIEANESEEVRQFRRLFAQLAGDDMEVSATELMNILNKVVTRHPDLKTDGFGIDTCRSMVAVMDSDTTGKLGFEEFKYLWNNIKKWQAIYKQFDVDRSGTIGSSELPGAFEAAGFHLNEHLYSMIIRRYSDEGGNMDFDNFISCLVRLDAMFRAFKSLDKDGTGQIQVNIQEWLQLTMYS
porcine kidney calpain 2, sequence (I3LQD3 entry or part of it): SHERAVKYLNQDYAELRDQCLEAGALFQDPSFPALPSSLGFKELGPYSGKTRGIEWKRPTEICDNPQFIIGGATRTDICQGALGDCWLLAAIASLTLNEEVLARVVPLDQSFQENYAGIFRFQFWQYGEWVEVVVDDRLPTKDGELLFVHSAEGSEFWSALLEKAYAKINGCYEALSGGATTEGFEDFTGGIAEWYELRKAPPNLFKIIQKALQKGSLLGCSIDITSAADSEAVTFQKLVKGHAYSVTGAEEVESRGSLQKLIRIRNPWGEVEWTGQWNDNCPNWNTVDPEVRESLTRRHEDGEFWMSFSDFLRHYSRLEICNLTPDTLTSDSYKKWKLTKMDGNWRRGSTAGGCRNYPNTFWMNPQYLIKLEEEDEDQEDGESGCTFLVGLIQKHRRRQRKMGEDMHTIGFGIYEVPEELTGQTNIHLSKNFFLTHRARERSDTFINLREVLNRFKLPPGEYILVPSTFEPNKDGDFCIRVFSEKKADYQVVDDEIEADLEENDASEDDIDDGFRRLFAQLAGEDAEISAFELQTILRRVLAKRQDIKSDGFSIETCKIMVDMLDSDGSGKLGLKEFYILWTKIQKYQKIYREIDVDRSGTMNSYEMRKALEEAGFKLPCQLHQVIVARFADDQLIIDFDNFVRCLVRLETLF

Consider `CC(=O)O.CCOC(OCC)[C@H](CCCNC(=N)N)NC(=O)[C@H](CC(C)C)NC(=O)CCC(=O)N[C@H](CC(=O)[O-])C[N+](C)(C)C` [CLA acetal, aminocarnityl-succinyl-leucyl-argininal diethyl acetal], for which the Percent acetal remaining in series [1] (pH = 0, room temperature, activation time 0 min) is 100.0%; in series [1] (pH = 0, room temperature, activation time 5 min) it was 80.0%; in [1] (pH = 0, room temperature, activation time 15 min), 28.5%; in series [1] (pH = 0, room temperature, activation time 30 min), 11.2%; in [1] (pH = 0, room temperature, activation time 45 min) it was 11.3%; in [1] (pH = 0, room temperature, activation time 60 min), 11.3%. For the same compound, the Percent acetal remaining was found to be 9.0% in series [1] (pH = 0, room temperature, activation time 90 min); 10.9% in series [1] (pH = 0, room temperature, activation time 120 min); 9.3% in series [1] (pH = 0, room temperature, activation time 240 min); 9.1% in series [1] (pH = 0, room temperature, activation time 1440 min); 100.0% in series [1] (pH = 1.0, room temperature, activation time 0 min); 100.6% in series [1] (pH = 1.0, room temperature, activation time 5 min). Further, the Percent acetal remaining in series [1] (pH = 1.0, room temperature, activation time 15 min) was 97.3%; in series [1] (pH = 1.0, room temperature, activation time 30 min) it was 92.2%; in series [1] (pH = 1.0, room temperature, activation time 45 min), 86.9%; in [1] (pH = 1.0, room temperature, activation time 60 min) it was 81.7%; in series [1] (pH = 1.0, room temperature, activation time 90 min), 72.7%; in series [1] (pH = 1.0, room temperature, activation time 120 min), 64.8%. The Percent acetal remaining amounted to 42.2% in [1] (pH = 1.0, room temperature, activation time 240 min) and 6.4% in series [1] (pH = 1.0, room temperature, activation time 1440 min). Also, the “toxicity after single oral dose” value in series [2] is “No evidence of toxicity”. For the same compound, the “Muscle concentration of prodrug” value in [3] (setting [10]) was 37.4 ng per gram; in [3] (setting [11]), 9.7 ng per gram; in series [3] (setting [12]), 10.3 ng per gram and 9.2 ng per gram. Also, the “Estimated Plasma Concentration of CLA acetal” value in series [4] (setting [13]) was 5,840 ng/mL; in [4] (60 minutes after single oral gavage of 50 mg/kg CLA acetal acetate salt, one line per rat, 50 mg/kg), 970 ng/mL and 8240 ng/mL and 51200 ng/mL. Besides, in series [4] (rats, 50 mg/kg oral gavage), the oral absorption result is “absorbed intact”.

Turning to `CC(C)C[C@H](NC(=O)CCC(=O)N[C@H](CC(=O)O)C[N+](C)(C)C)C(=O)N[C@H](C=O)CCCNC(=N)N.Cl.[Cl-]` [CLA, aminocarnityl-succinyl-leucyl-argininal], in the series on calpain [5] (14 μmoles), the “% inhibition of muscle calpain activity” value is given as 48%. In addition, the “% inhibition/μmole” value in the series on calpain [5] was determined as 3.5%. For the same compound, the “Fold (effectiveness per μmole relative to leupeptin)” value in the series with calpain [5] is 13.5. Besides, the “Myofiber diameter (Gastrocnemis)” value came to 28.7 ± 7 mm in the series on mdx mice (5 mg) and 30.6 ± 11 mm in the series with mdx mice (10 mg). For the same compound, the “Myofiber diameter, Diaphragm” value with mdx mice (5 mg) turned out to be 25.1 ± 7.3 mm; in the series with mdx mice (10 mg) it was 25.4 ± 7.3 mm. In addition, in the series with mdx mice (retention of muscle size), the “effectiveness relative to leupeptin alone” value was “at least five to seven times more effective”. The “Muscle concentration of active drug” value was 124.6 ng per gram in series [3] (setting [10]); 683.6 ng per gram in [3] (setting [11]); 758.4 ng per gram and 330.8 ng per gram in series [3] (setting [12]). Moreover, the “Percent of drug present as the active form” value is 76.9% in [3] (setting [10]); 98.6% in [3] (setting [11]); 98.7% and 97.3% in [3] (setting [12]). In addition, the “toxic effect on animal viability” value in series [6] is on record as “No toxic effect”. Further, the “% loss (muscle atrophy due to denervation)” value in series [7] (1.0 mg/kg injected 2x/day for seven days) is 5.2 ± 1%; in series [7] (3.0 mg/kg injected 2x/day for seven days) it was under 1.0%; in [7] (6.0 mg/kg injected 2x/day for seven days), under 1.0%. Besides, the “health / toxic effect in denervation study” value in series [7] (rats, seven days of injections) is recorded as “remained healthy without any apparent negative toxic effect”. Also, in series [8] (intravenous bolus, 500 mg/kg), the lethality result is “lethal”. Moreover, in series [8] (single intravenous dose), the maximum tolerated dose turned out to be 200 mg/kg. The “no adverse effect limit (NOAEL)” value in series [8] (single intravenous dose) amounted to 100 mg/kg. In addition, in [8] (single intravenous dose, 50 and 100 mg/kg), the toxicity entry is reported as “No toxicity”. The “fold lower IC50 than leupeptin” value with calpain [9] is on record as “approximately 200 fold”. For the same compound, the “Estimated Plasma Concentration of CLA aldehyde” value in series [4] (setting [13]) is under 20 ng/mL; in series [4] (60 minutes after single oral gavage of 50 mg/kg CLA acetal acetate salt, one line per rat, listed as CLA aldehyde, 50 mg/kg) it was <20 ng/mL (2×) and 72 ng/mL.

Turning to `CC(C)CC(NC(=O)CCC(=O)NC(CC(=O)[O-])C[N+](C)(C)C)C(=O)NC(C=O)CCCNC(=N)N` [D-isomer], the IC50 on porcine kidney calpain 2 (FIG. 7 Panel B) is over 100000 nM.

As to `CC(C)CC(NC(=O)CCC(=O)NC(CC(=O)[O-])C[N+](C)(C)C)C(=O)NC(C=O)CCCNC(=N)N` [L-isomer of CLA], the half-inhibitory concentration (IC50) on porcine kidney calpain 2 (FIG. 7 Panel A) fell in the range of 500 to 1000 nM.

The IC50 is the concentration that gives 50% inhibition.

(Values after patent US20080039531A1, “Compositions, and kits comprising targeted aldehyde or acetal protease inhibitor compounds for treating muscle disorders” (priority 2005, published 2008).)
